According to patent US6750240B2, “Methods of using bis-indolylquinones” (Sugen, Inc., priority 1997, dated 2004):

Key:
[1] = target: HIV-reverse transcriptase (Human immunodeficiency virus type 1 group M subtype B, UniProt P03366); conditions: cited from earlier work
[2] = tested on: human epidermoid carcinoma (A431, ATCC CRL 1555); assay: In vivo tumor growth of A431 cells implanted into the hindflank of athymic mice; set-up: species or system Female athymic mice (BALB/c, nu/nu)
Method: The following example illustrates the use of the compounds of the invention in an in vivo model of tumor growth.
Female athymic mice (BALB/c, nu/nu) were obtained from Simonsen Laboratories (Gilroy, Calif.). All animals were maintained under clean-room conditions in Micro-isolator cages with Alpha-dri bedding. They received sterile rodent chow and water ad libitum. A cell line established from a human epidermoid carcinoma (A431, ATCC CRL 1555) was grown in DMEM with 10% FBS and 2 mM GLN. All cell culture media, glutamine, and fetal bovine serum were purchased from Gibco Life Technologies (Grand Island, N.Y.) unless otherwise specified. All cells were grown in a humid atmosphere of 90-95% air and 5-10% CO2 at 37° C. All cell lines were routinely subcultured twice a week and were negative for mycoplasma as determined by teh Mycotect method (Gibco). Cells were harvested at or near confluency with 0.05% Trypsin-EDTA and pelleted at 450×g for 10 min. Pellets were resuspended in sterile PBS or media (without FBS) to a particular concentration and the cells were implanted into the hindflank of the mice ([…] mice per group). Tumor growth was measured, over 3 to 6 weeks using venier calipers. Tumor volumes were calculated as a product of length×width×height unless otherwise indicated. P values were calculated using the Students' t-test. Compound 1 (from Example 1 and Table I) in 100 μL excipient (VPD:D5W, 1:1 (VPD−12% w/v polysorbate 80, 0.55% citric acid (anhydrous), 35% w/v polyenthlene glycol (MW=300 daltons) and 26.3% v/v 190 proof ethanol diluted 1:22 in 5% dextrose in water (D5W) was delivered by IP injection at different concentrations. Control animals received VPD:D5W alone. Animals were dosed daily on days 1-5 (high dose), days 1-9 (mid-dose) or throughout the study (low dose).
The results are shown below as a percent tumor reduction compared to controls.

| Compound | inhibition of HIV-reverse transcriptase [1] | % inhibition (percent tumor reduction compared to controls) ([2]; 2.5 mg/kg/day IP (low dose, dosed daily throughout the study), Day 7, A431 tumor) [%] | % inhibition (percent tumor reduction compared to controls) ([2]; 2.5 mg/kg/day IP (low dose, dosed daily throughout the study), Day 18, A431 tumor) [%] | % inhibition (percent tumor reduction compared to controls) ([2]; 5 mg/kg/day IP (mid-dose, days 1-9), Day 7, A431 tumor) [%] | % inhibition (percent tumor reduction compared to controls) ([2]; 5 mg/kg/day IP (mid-dose, days 1-9), Day 18, A431 tumor) [%] | % inhibition (percent tumor reduction compared to controls) ([2]; 7.5 mg/kg/day IP (high dose, days 1-5), Day 7, A431 tumor) [%] | % inhibition (percent tumor reduction compared to controls) ([2]; 7.5 mg/kg/day IP (high dose, days 1-5), Day 18, A431 tumor) [%] | tumor growth inhibition, dose dependence ([2]; IP, 2.5-7.5 mg/kg/day, A431 tumor in athymic mice) | tumor growth after cessation of treatment ([2]; after cessation of treatment with the compound) |
| --- | --- | --- | --- | --- | --- | --- | --- | --- | --- |
| C=CC(C)(C)n1cc(C2=C(O)C(=O)C(c3cn(C(C)(C)C=C)c4ccccc34)=C(O)C2=O)c2ccccc21 [asterriquinone, 2,5-bis[N-(1″,1″-dimethyl-2″-propenyl)indol-3″-yl]-3,6-dihydroxy-1,4-benzoquinone] | strong inhibitors | – | – | – | – | – | – | – | – |
| CC(C)CCc1[nH]c2ccccc2c1C1=C(O)C(=O)C(c2c(CCC(C)C)[nH]c3ccccc23)=C(O)C1=O [Compound 1, 2,5-Dihydroxy-3,6-di-[2-(3-methyl-n-butyl)indol-3-yl]-1,4-quinone] | – | 11 | 0 | 30 | 38 | 55 | 50 | inhibited tumor growth in a dose dependent manner | remained inhibited even after cessation of treatment |
